According to ChEMBL document CHEMBL1201862, “PubChem BioAssay data set” (2004):
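Briefly, cells in 96-well plates were exposed to five compound concentrations for 48 h, and endpoints were estimated by linear interpolation. Here, GI50 denotes the concentration required for 50% inhibition of growth.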 Activity calls are given as the source filed them. Cut-off read from the data, not from the text of the source: active = GI50 up to about 1.1 µM and inactive = higher.

Experiments:
Experiment in all cases: NCI-60 cell line screen, 48 h
T47D = tested on: T47D
CCRF-CEM = tested on: CCRF-CEM
SF-295 = tested on: SF-295
NCI-H23 = tested on: NCI-H23
NCI/ADR-RES = tested on: NCI/ADR-RES
HL-60 = tested on: HL-60
MDA-MB-435 = tested on: MDA-MB-435
SNB-19 = tested on: SNB-19
HCC 2998 = tested on: HCC 2998
HCT-116 = tested on: HCT-116
MDA-MB-231 = tested on: MDA-MB-231
UACC-62 = tested on: UACC-62
A549 = tested on: A549
OVCAR-8 = tested on: OVCAR-8
SW-620 = tested on: SW-620
ACHN = tested on: ACHN
UO-31 = tested on: UO-31
HOP-92 = tested on: HOP-92
DU-145 = tested on: DU-145
HCT-15 = tested on: HCT-15
MDA-N = tested on: MDA-N
HT-29 = tested on: HT-29
MOLT-4 = tested on: MOLT-4
HOP-62 = tested on: HOP-62
EKVX = tested on: EKVX
NCI-H522 = tested on: NCI-H522
Malme-3M = tested on: Malme-3M
OVCAR-3 = tested on: OVCAR-3
SF-539 = tested on: SF-539
NCI-H226 = tested on: NCI-H226
RPMI-8226 = tested on: RPMI-8226
SK-MEL-2 = tested on: SK-MEL-2
UACC-257 = tested on: UACC-257
TK-10 = tested on: TK-10
Hs-578T = tested on: Hs-578T
CAKI-1 = tested on: CAKI-1
IGROV-1 = tested on: IGROV-1
SK-MEL-28 = tested on: SK-MEL-28
COLO 205 = tested on: COLO 205
U-251 = tested on: U-251
NCI-H460 = tested on: NCI-H460
SK-OV-3 = tested on: SK-OV-3
SN12C = tested on: SN12C
OVCAR-5 = tested on: OVCAR-5
A498 = tested on: A498
SNB-75 = tested on: SNB-75
RXF 393 = tested on: RXF 393
M14 = tested on: M14
786-0 = tested on: 786-0
LOX IMVI = tested on: LOX IMVI
MCF7 = tested on: MCF7
OVCAR-4 = tested on: OVCAR-4
SF-268 = tested on: SF-268
KM12 = tested on: KM12
BT-549 = tested on: BT-549
SK-MEL-5 = tested on: SK-MEL-5
PC-3 = tested on: PC-3
K562 = tested on: K562
SR = tested on: SR

Q: For `Nc1nc(Cl)cc(Oc2ccc(Cl)cc2)n1`, which GI50 (T47D) is on record?
A: 32.4 µM (inactive)

Q: What about the GI50 (CCRF-CEM) of the same molecule?
A: > 77.6 µM (inactive)

Q: What about the GI50 (SF-295) of the same molecule?
A: > 55.8 µM (inactive)

Q: And the GI50 (NCI-H23)?
A: 29.5 µM (inactive)

Q: What about the GI50 (NCI/ADR-RES) of the same molecule?
A: > 70.3 µM (inactive)

Q: What about the GI50 (HL-60) of the same molecule?
A: > 68.9 µM (inactive)

Q: What about the GI50 (MDA-MB-435) of the same molecule?
A: > 57.3 µM (inactive)

Q: And the GI50 (SNB-19)?
A: > 53.7 µM (inactive)

Q: What about the GI50 (HCC 2998) of the same molecule?
A: > 55.2 µM (inactive)

Q: What about the GI50 (HCT-116) of the same molecule?
A: > 57.9 µM (inactive)

Q: And the GI50 (MDA-MB-231)?
A: > 56.1 µM (inactive)

Q: And the GI50 (UACC-62)?
A: 29.9 µM (inactive)

Q: And the GI50 (A549)?
A: > 100 µM (inactive)

Q: And the GI50 (OVCAR-8)?
A: > 73.6 µM (inactive)

Q: And the GI50 (SW-620)?
A: > 58.6 µM (inactive)

Q: What about the GI50 (ACHN) of the same molecule?
A: 31.4 µM (inactive)

Q: And the GI50 (UO-31)?
A: 29.9 µM (inactive)

Q: And the GI50 (HOP-92)?
A: 23.2 µM (inactive)

Q: What about the GI50 (DU-145) of the same molecule?
A: > 56.2 µM (inactive)

Q: And the GI50 (HCT-15)?
A: > 57.4 µM

Q: And the GI50 (MDA-N)?
A: > 61 µM (inactive)

Q: And the GI50 (HT-29)?
A: > 100 µM (inactive)

Q: And the GI50 (MOLT-4)?
A: > 60.5 µM (inactive)

Q: What about the GI50 (HOP-62) of the same molecule?
A: > 100 µM (inactive)

Q: And the GI50 (EKVX)?
A: > 100 µM (inactive)

Q: And the GI50 (NCI-H522)?
A: 22.6 µM (inactive)

Q: What about the GI50 (Malme-3M) of the same molecule?
A: 34.3 µM (inactive)

Q: And the GI50 (OVCAR-3)?
A: > 56.4 µM (inactive)

Q: What about the GI50 (SF-539) of the same molecule?
A: > 50.7 µM (inactive)

Q: What about the GI50 (NCI-H226) of the same molecule?
A: > 100 µM (inactive)

Q: What about the GI50 (RPMI-8226) of the same molecule?
A: > 55.6 µM (inactive)

Q: What about the GI50 (SK-MEL-2) of the same molecule?
A: > 100 µM (inactive)

Q: What about the GI50 (UACC-257) of the same molecule?
A: 38.5 µM (inactive)

Q: What about the GI50 (TK-10) of the same molecule?
A: 28.2 µM (inactive)

Q: And the GI50 (Hs-578T)?
A: > 53.7 µM (inactive)

Q: And the GI50 (CAKI-1)?
A: 44.6 µM (inactive)

Q: What about the GI50 (IGROV-1) of the same molecule?
A: > 100 µM (inactive)

Q: What about the GI50 (SK-MEL-28) of the same molecule?
A: > 57.3 µM (inactive)

Q: And the GI50 (COLO 205)?
A: > 60.5 µM (inactive)

Q: What about the GI50 (U-251) of the same molecule?
A: > 56.2 µM (inactive)

Q: What about the GI50 (NCI-H460) of the same molecule?
A: > 54.7 µM (inactive)

Q: And the GI50 (SK-OV-3)?
A: > 55.2 µM (inactive)

Q: And the GI50 (SN12C)?
A: > 51.9 µM (inactive)

Q: What about the GI50 (OVCAR-5) of the same molecule?
A: > 56.1 µM (inactive)

Q: What about the GI50 (A498) of the same molecule?
A: > 47.5 µM (inactive)

Q: What about the GI50 (SNB-75) of the same molecule?
A: > 100 µM (inactive)

Q: What about the GI50 (RXF 393) of the same molecule?
A: > 100 µM (inactive)

Q: What about the GI50 (M14) of the same molecule?
A: > 57 µM (inactive)

Q: What about the GI50 (786-0) of the same molecule?
A: > 59 µM (inactive)

Q: What about the GI50 (LOX IMVI) of the same molecule?
A: > 48.3 µM (inactive)

Q: And the GI50 (MCF7)?
A: > 53.2 µM (inactive)

Q: And the GI50 (OVCAR-4)?
A: > 53.2 µM (inactive)

Q: What about the GI50 (SF-268) of the same molecule?
A: > 54.8 µM (inactive)

Q: What about the GI50 (KM12) of the same molecule?
A: > 100 µM (inactive)

Q: What about the GI50 (BT-549) of the same molecule?
A: 28.2 µM (inactive)

Q: And the GI50 (SK-MEL-5)?
A: > 56.6 µM (inactive)

Q: And the GI50 (PC-3)?
A: > 100 µM (inactive)

Q: And the GI50 (K562)?
A: > 55.8 µM (inactive)

Q: What about the GI50 (SR) of the same molecule?
A: > 80.4 µM (inactive)

Q: For `CN(N)/N=N/c1[nH]cnc1C(N)=O`, which GI50 (T47D) is on record?
A: > 34.5 µM (inactive)

Q: What about the GI50 (CCRF-CEM) of the same molecule?
A: 2.72 µM (inactive)

Q: And the GI50 (SF-295)?
A: 6.14 µM (inactive)

Q: And the GI50 (NCI-H23)?
A: 50.4 µM (inactive)

Q: What about the GI50 (NCI/ADR-RES) of the same molecule?
A: 5.35 µM (inactive)

Q: And the GI50 (HL-60)?
A: 0.531 µM (active)

Q: What about the GI50 (MDA-MB-435) of the same molecule?
A: 25.2 µM (inactive)

Q: And the GI50 (SNB-19)?
A: > 100 µM (inactive)

Q: And the GI50 (HCC 2998)?
A: 3.3 µM (inactive)

Q: What about the GI50 (HCT-116) of the same molecule?
A: 9.12 µM (inactive)

Q: And the GI50 (MDA-MB-231)?
A: 3.22 µM (inactive)

Q: What about the GI50 (UACC-62) of the same molecule?
A: 6.14 µM (inactive)

Q: And the GI50 (A549)?
A: > 100 µM (inactive)

Q: And the GI50 (OVCAR-8)?
A: 3.14 µM (inactive)

Q: And the GI50 (SW-620)?
A: 9.75 µM (inactive)

Q: What about the GI50 (ACHN) of the same molecule?
A: 22.3 µM (inactive)

Q: And the GI50 (UO-31)?
A: 4 µM (inactive)

Q: And the GI50 (HOP-92)?
A: 17.5 µM (inactive)

Q: And the GI50 (DU-145)?
A: 5.57 µM (inactive)

Q: And the GI50 (HCT-15)?
A: 22.8 µM

Q: What about the GI50 (MDA-N) of the same molecule?
A: 13.4 µM (inactive)

Q: And the GI50 (HT-29)?
A: 99.8 µM (inactive)

Q: And the GI50 (MOLT-4)?
A: 1.23 µM (inactive)

Q: What about the GI50 (HOP-62) of the same molecule?
A: 48.9 µM (inactive)

Q: What about the GI50 (EKVX) of the same molecule?
A: 36.1 µM (inactive)

Q: And the GI50 (NCI-H522)?
A: 30.5 µM (inactive)

Q: What about the GI50 (Malme-3M) of the same molecule?
A: 4.55 µM (inactive)

Q: And the GI50 (OVCAR-3)?
A: 17.5 µM (inactive)

Q: And the GI50 (SF-539)?
A: 13.7 µM (inactive)

Q: And the GI50 (NCI-H226)?
A: 23.4 µM (inactive)

Q: And the GI50 (RPMI-8226)?
A: 3.36 µM (inactive)

Q: What about the GI50 (SK-MEL-2) of the same molecule?
A: 4.79 µM (inactive)

Q: What about the GI50 (UACC-257) of the same molecule?
A: 54.2 µM (inactive)

Q: What about the GI50 (TK-10) of the same molecule?
A: 7.67 µM (inactive)

Q: And the GI50 (Hs-578T)?
A: 37.5 µM (inactive)

Q: What about the GI50 (CAKI-1) of the same molecule?
A: 4.24 µM (inactive)

Q: What about the GI50 (IGROV-1) of the same molecule?
A: 9.93 µM (inactive)

Q: What about the GI50 (SK-MEL-28) of the same molecule?
A: > 100 µM (inactive)

Q: And the GI50 (COLO 205)?
A: 17.5 µM (inactive)

Q: What about the GI50 (U-251) of the same molecule?
A: > 66.1 µM (inactive)

Q: And the GI50 (NCI-H460)?
A: 13.2 µM (inactive)

Q: What about the GI50 (SK-OV-3) of the same molecule?
A: 3.33 µM (inactive)

Q: What about the GI50 (SN12C) of the same molecule?
A: 4.82 µM (inactive)

Q: And the GI50 (OVCAR-5)?
A: > 89.7 µM (inactive)

Q: And the GI50 (A498)?
A: 39.1 µM (inactive)

Q: What about the GI50 (SNB-75) of the same molecule?
A: 4.66 µM (inactive)

Q: And the GI50 (RXF 393)?
A: > 100 µM (inactive)

Q: And the GI50 (M14)?
A: 3.01 µM (inactive)

Q: And the GI50 (786-0)?
A: 12.1 µM (inactive)

Q: What about the GI50 (LOX IMVI) of the same molecule?
A: 1.65 µM (inactive)

Q: What about the GI50 (MCF7) of the same molecule?
A: 48.4 µM (inactive)

Q: What about the GI50 (OVCAR-4) of the same molecule?
A: 3.53 µM (inactive)

Q: What about the GI50 (SF-268) of the same molecule?
A: 5.52 µM (inactive)

Q: And the GI50 (KM12)?
A: 23.7 µM (inactive)

Q: What about the GI50 (BT-549) of the same molecule?
A: 42.2 µM (inactive)

Q: And the GI50 (SK-MEL-5)?
A: 37.7 µM (inactive)

Q: What about the GI50 (PC-3) of the same molecule?
A: 15.3 µM (inactive)

Q: And the GI50 (K562)?
A: 1.92 µM (inactive)

Q: And the GI50 (SR)?
A: 0.352 µM (active)
